Data on five compounds can be found in patent publication EP4745153A1, “GLP-1, GIP AND GCG RECEPTOR […] USE THEREOF” (Jiangsu Hengrui Pharmaceuticals Co., Ltd., priority 2023, dated 2025).

By EC50 is commonly meant the concentration needed to bring the measured effect to its halfway point. Usually AUC(0-inf) stands for total exposure, with the tail of the curve extrapolated. Low values mean low exposure, high ones high exposure.

One data set concerns the target T1, human GIPR (Homo sapiens, UniProt P48546).
T1 construct: expressed in transfected cells; host or cells: CHO-K1 clonal cell line
T1 sequence (P48546 22-466): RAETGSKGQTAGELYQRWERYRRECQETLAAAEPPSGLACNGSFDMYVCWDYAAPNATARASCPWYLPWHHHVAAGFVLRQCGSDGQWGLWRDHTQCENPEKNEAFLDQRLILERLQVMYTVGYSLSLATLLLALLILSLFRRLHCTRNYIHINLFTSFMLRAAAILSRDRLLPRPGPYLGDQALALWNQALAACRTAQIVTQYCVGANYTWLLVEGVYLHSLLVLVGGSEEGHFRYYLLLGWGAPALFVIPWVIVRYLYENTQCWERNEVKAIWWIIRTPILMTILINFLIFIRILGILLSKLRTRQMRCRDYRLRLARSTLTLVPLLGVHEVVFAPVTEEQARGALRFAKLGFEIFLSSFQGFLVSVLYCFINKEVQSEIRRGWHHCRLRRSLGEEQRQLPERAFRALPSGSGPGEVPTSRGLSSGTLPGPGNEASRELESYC
Nature of the data set: cAMP HTRF agonist activity assay in CHO-K1 cells expressing GIPR. Further: 5% FBS, 0.1% Casein. The conditions noted are these: read-out: Activity against human GIPR (EC50 nM). Format: cell-based. As for the experimental part: Functional activity was determined in CHO-K1 clonal cell lines expressing GIPR, GLP-1R, and GCGR. […] Each recipient cell (5000 cells/well) was added to an SV 96-well plate (Cisbio, 66PL96025) and incubated with the prepared polypeptide at 37°Cfor 30 min. The resulting increase in intracellular cAMP was quantitatively measured using the cAMP-GS dynamic HTRF assay kit (Cisbio, 62AM4PEJ). Briefly, the intracellular cAMP levels were determined by adding cAMP-d2 conjugate in cell lysis buffer, followed by the antibody anti-cAMP-Eu cryptate (also in cell lysis buffer).
Using the maximum response percentage vs. the added polypeptide concentration, the relative EC50 values were derived through nonlinear regression analysis and fitted to a four-parameter logarithmic equation. For specific data, refer to Tables 7-1 to 7-8 below. […]
In general terms: Time-resolved FRET reads energy transfer from a long-lived donor to a nearby acceptor.

Data set [1] in a line: Pharmacokinetics in mice after single intravenous injection. The arrangement: species or system C57 mice. The conditions noted are these: in vivo. Here is the method: Male C57 mice were used as test animals. The target compound was administered via a single intravenous injection, and the pharmacokinetic characteristics of the compound in C57 mice in vivo (plasma) were determined.
Male C57 mice, weighing approximately 25g, aged 4-6 weeks. After preparing the polypeptide compound solution using 1×PBS dissolving solution, the compound was administered intravenously at a dose of 200 nmol/kg, where each compound was administered to 3 animals. Blood samples of 60 µL were collected at 5 min, 15 min, 0.5 h, 1 h, 2 h, 4 h, 6 h, 24 h, 48 h and 72 h after the infusion was completed and transferred to centrifuge tubes containing EDTA-K2 anticoagulant. Whole blood samples were centrifuged at 4000 g for 5 min at 4°C. Plasma was separated and plasma samples were frozen and stored at -80 °C.
Sample pretreatment method: 30 µL of plasma samples was taken, and 120 µL of 0.1% formic acid in methanol containing 1 ng/mL internal standard verapamil was added. The mixture was vortexed for 5 min, and centrifuged at 10000 rpm for 10 min at low temperature. 70 µL of supernatant was taken, and 70 µL of water was added and mixed well. Analysis was performed by LC-MS instrument.
LC-MS analysis method: (1) chromatographic conditions: mobile phases A and B: 0.1% formic acid in water and 0.1% formic acid in acetonitrile, respectively; gradient elution mode; flow rate: 0.5 mL/min; injection volume: 10 µL; chromatographic column: nanomicro Unisil C18aq (4.6 mm × 150 mm, 5 µm); column temperature: 40°C. (2) Mass spectrometry conditions: For mass spectrometry, an electrospray ionization source (ESI), positive ion analysis mode, and multiple reaction monitoring (MRM) scanning mode were used.
For data processing, SCIEX OS (Version 2.1.6) software was used to quantify blood drug concentration data and PKSolver (Version 2.0) software was used to calculate pharmacokinetic parameters.

Where [2] appears, read: mouse, male C57 mice, single intravenous dose 200 nmol/kg, plasma.

SMILES strings stand for the structures. Read-outs that look alike come from different tables or passages of the source. Starred links: 1 amine or outer side, 2 acyl side, 3 side chain; linkers in the order of their positions; H or OH if unused. Non-standard residues stand in square brackets, D forms with d. Residues, ends and D or L forms follow the SMILES beside them. Groups on a side chain read outwards from the residue. ξ: configuration not given here. *: point of attachment. C20 diacid = O=C(O)CCCCCCCCCCCCCCCCCCC(=O)*; γGlu = O=C(O)[C@H](CCC(=O)[*:2])N[*:1]; αMeK = C[C@](N)(CCCCN)C(=O)O; ξIva = CCC(C)(N)C(=O)O; AEEA = NCCOCCOCC(=O)O; Aib = CC(C)(N)C(=O)O

`CC[C@H](C)[C@H](NC(=O)[C@H](CO)NC(=O)[C@H](Cc1ccc(O)cc1)NC(=O)[C@H](CC(=O)O)NC(=O)[C@H](CO)NC(=O)[C@@H](NC(=O)[C@H](Cc1ccccc1)NC(=O)[C@@H](NC(=O)CNC(=O)[C@H](Cc1c[nH]cn1)NC(=O)C(C)(C)NC(=O)[C@@H](N)Cc1c[nH]cn1)[C@@H](C)O)[C@@H](C)O)C(=O)N[C@@H](CC(C)C)C(=O)N[C@@H](CC(C)C)C(=O)N[C@@H](CCC(=O)O)C(=O)N[C@@H](CCCCNC(=O)COCCOCCNC(=O)COCCOCCNC(=O)CC[C@H](NC(=O)CCCCCCCCCCCCCCCCCCC(=O)O)C(=O)O)C(=O)N[C@@H](CCC(N)=O)C(=O)N[C@@H](C)C(=O)N[C@@H](C)C(=O)NC1(C(=O)N[C@@H](CCC(=O)O)C(=O)N[C@@H](Cc2ccccc2)C(=O)N[C@H](C(=O)N[C@@H](CCC(=O)O)C(=O)N[C@@H](Cc2c[nH]c3ccccc23)C(=O)N[C@@H](CC(C)C)C(=O)N[C@@H](CC(C)C)C(=O)N[C@@H](C)C(=O)N[C@H](CCC(=O)O)C(=O)NCC(=O)N2CCC[C@H]2C(=O)N[C@@H](CO)C(=O)N[C@@H](CO)C(=O)NCC(=O)N[C@@H](C)C(=O)N2CCC[C@H]2C(=O)N2CCC[C@H]2C(=O)N2CCC[C@H]2C(=O)N[C@@H](CO)C(N)=O)C(C)C)CCC1` [Compound 0150]: the EC50 at human GIPR worked out at 0.002 nM.

In the case of `CC[C@H](C)[C@H](NC(=O)[C@H](CO)NC(=O)[C@H](Cc1ccc(O)cc1)NC(=O)[C@H](CC(=O)O)NC(=O)[C@H](CO)NC(=O)[C@@H](NC(=O)[C@H](Cc1ccccc1)NC(=O)[C@@H](NC(=O)CNC(=O)[C@H](Cc1c[nH]cn1)NC(=O)C(C)(C)NC(=O)[C@@H](N)Cc1c[nH]cn1)[C@@H](C)O)[C@@H](C)O)C(=O)N[C@@H](CC(C)C)C(=O)N[C@@H](CC(C)C)C(=O)N[C@@H](CCC(=O)O)C(=O)N[C@@H](CCCCNC(=O)COCCOCCNC(=O)COCCOCCNC(=O)CC[C@H](NC(=O)CCCCCCCCCCCCCCCCCCC(=O)O)C(=O)O)C(=O)N[C@@H](CCC(N)=O)C(=O)N[C@@H](C)C(=O)N[C@@H](C)C(=O)N[C@@H](CCC(N)=O)C(=O)N[C@@H](CCC(=O)O)C(=O)N[C@@H](Cc1ccccc1)C(=O)N[C@H](C(=O)N[C@@H](CCC(=O)O)C(=O)N[C@@H](Cc1c[nH]c2ccccc12)C(=O)N[C@@H](CC(C)C)C(=O)N[C@@H](CC(C)C)C(=O)N[C@@H](C)C(=O)N[C@H](CCC(=O)O)C(=O)NCC(=O)N1CCC[C@H]1C(=O)N[C@@H](CO)C(=O)N[C@@H](CO)C(=O)NCC(=O)N[C@@H](C)C(=O)N1CCC[C@H]1C(=O)N1CCC[C@H]1C(=O)N1CCC[C@H]1C(=O)N[C@@H](CO)C(N)=O)C(C)C` [Compound 0153], at human GIPR, the EC50 is 0.01 nM.

In data set [1] (setting [2]), `CC[C@H](C)[C@H](NC(=O)[C@H](CC(C)C)NC(=O)[C@H](Cc1c[nH]c2ccccc12)NC(=O)[C@H](CCC(=O)O)NC(=O)[C@@H](NC(=O)[C@H](Cc1ccccc1)NC(=O)[C@H](CCC(=O)O)NC(=O)C(C)(CC)NC(=O)[C@H](C)NC(=O)[C@H](C)NC(=O)[C@H](CCCCN)NC(=O)[C@H](CCCCNC(=O)COCCOCCNC(=O)COCCOCCNC(=O)CC[C@H](NC(=O)CCCCCCCCCCCCCCCCCCC(=O)O)C(=O)O)NC(=O)[C@H](CCC(=O)O)NC(=O)[C@H](CC(C)C)NC(=O)[C@H](CC(C)C)NC(=O)[C@](C)(CCCCN)NC(=O)[C@H](CO)NC(=O)[C@H](Cc1ccc(O)cc1)NC(=O)[C@H](CC(=O)O)NC(=O)[C@H](CO)NC(=O)[C@@H](NC(=O)[C@H](Cc1ccccc1)NC(=O)[C@@H](NC(=O)CNC(=O)[C@H](Cc1c[nH]cn1)NC(=O)C(C)(C)NC(=O)[C@@H](N)Cc1c[nH]cn1)[C@@H](C)O)[C@@H](C)O)C(C)C)C(=O)N[C@@H](CCC(=O)O)C(=O)NCC(=O)NCC(=O)N1CCC[C@H]1C(=O)N[C@@H](CO)C(=O)N[C@@H](CO)C(=O)NCC(=O)N[C@@H](C)C(=O)N1CCC[C@H]1C(=O)N1CCC[C@H]1C(=O)N1CCC[C@H]1C(=O)N[C@@H](CO)C(N)=O` (stereo partly drawn) [Compound 0131] (H-H[Aib]HGTFTSDYS[αMeK]LLEK([AEEA-AEEA-γGlu-C20 diacid])KAA[ξIva]EFVEWLIEGGPSSGAPPPS-NH2) displayed an AUC(0-inf) of 22.5 µM·h and a C0 of 5.98 µM. For the same compound, the clearance in data set [1] (mouse, male C57 mice, single intravenous dose 200 nmol/kg, plasma, read-out: CLp) turned out to be 0.148 mL/min/kg. Besides, the half-life in data set [1] (mouse, male C57 mice, single intravenous dose 200 nmol/kg, plasma, read-out: T1/2 (converted)) was 10.2 h.

Turning to `CC[C@H](C)[C@H](NC(=O)[C@H](CO)NC(=O)[C@H](Cc1ccc(O)cc1)NC(=O)[C@H](CC(=O)O)NC(=O)[C@H](CO)NC(=O)[C@@H](NC(=O)[C@H](Cc1ccccc1)NC(=O)[C@@H](NC(=O)CNC(=O)[C@H](Cc1c[nH]cn1)NC(=O)C(C)(C)NC(=O)[C@@H](N)Cc1c[nH]cn1)[C@@H](C)O)[C@@H](C)O)C(=O)N[C@@H](CC(C)C)C(=O)N[C@@H](CC(C)C)C(=O)N[C@@H](CCC(=O)O)C(=O)N[C@@H](CCCCNC(=O)COCCOCCNC(=O)COCCOCCNC(=O)CC[C@H](NC(=O)CCCCCCCCCCCCCCCCCCC(=O)O)C(=O)O)C(=O)N[C@@H](CCC(N)=O)C(=O)N[C@@H](C)C(=O)N[C@@H](C)C(=O)NC1(C(=O)N[C@@H](CCC(=O)O)C(=O)N[C@@H](Cc2ccccc2)C(=O)N[C@H](C(=O)N[C@@H](CCC(=O)O)C(=O)N[C@@H](Cc2c[nH]c3ccccc23)C(=O)N[C@@H](CC(C)C)C(=O)N[C@@H](CC(C)C)C(=O)N[C@@H](C)C(=O)N[C@H](CCC(=O)O)C(=O)NCC(=O)N2CCC[C@H]2C(=O)N[C@@H](CO)C(=O)N[C@@H](CO)C(=O)NCC(=O)N[C@@H](C)C(=O)N2CCC[C@H]2C(=O)N2CCC[C@H]2C(=O)N2CCC[C@H]2C(=O)N[C@@H](CO)C(N)=O)C(C)C)CC1` [Compound 0149], the EC50 at human GIPR worked out at 0.004 nM.

In the case of `CC[C@H](C)[C@H](NC(=O)[C@H](CO)NC(=O)[C@H](CC(C)C)NC(=O)[C@H](CC(=O)O)NC(=O)[C@H](CO)NC(=O)[C@@H](NC(=O)[C@H](Cc1ccccc1)NC(=O)[C@@H](NC(=O)CNC(=O)[C@H](Cc1c[nH]cn1)NC(=O)C(C)(C)NC(=O)[C@@H](N)Cc1c[nH]cn1)[C@@H](C)O)[C@@H](C)O)C(=O)N[C@@](C)(CC(C)C)C(=O)N[C@@H](CC(C)C)C(=O)N[C@@H](CCC(=O)O)C(=O)N[C@@H](CCCCNC(=O)COCCOCCNC(=O)COCCOCCNC(=O)CC[C@H](NC(=O)CCCCCCCCCCCCCCCCCCC(=O)O)C(=O)O)C(=O)N[C@@H](CCCCN)C(=O)N[C@@H](C)C(=O)N[C@@H](C)C(=O)NC1(C(=O)N[C@@H](CCC(=O)O)C(=O)N[C@@H](Cc2ccccc2)C(=O)N[C@H](C(=O)N[C@@H](CCC(=O)O)C(=O)N[C@@H](Cc2c[nH]c3ccccc23)C(=O)N[C@@H](CC(C)C)C(=O)N[C@@H](CC(C)C)C(=O)N[C@@H](C)C(=O)NCC(=O)NCC(=O)N2CCC[C@H]2C(=O)N[C@@H](CO)C(=O)N[C@@H](CO)C(=O)NCC(=O)N[C@@H](C)C(=O)N2CCC[C@H]2C(=O)N2CCC[C@H]2C(=O)N2CCC[C@H]2C(=O)N[C@@H](CO)C(N)=O)C(C)C)CCC1` [Compound 0140], in data set [1] (male, C57, mouse, iv), the clearance is 0.115 mL/min/kg and the half-life was 9.3 h.
